Measurements as given in patent US9457007B2, “Prenylflavanone compounds for modulating diabetes” (NATUREWISE BIOTECH & MEDICALS CORPORATION, priority 2013, dated 2016).

Assays:
Assay type in all cases: in vivo
[1] = test system: STZ-induced diabetic mice; experiment: Blood glucose in the STZ-induced diabetic mice; conditions: propolins study; after administration for 8 weeks by gavage daily; PPC 9.0, PPD 6.75, PPF 4.5, PPG 4.5, Januvia 370 mg/kg/mouse
Procedure: The male FBV mice of 5 weeks old, commercially available from BioLASCO Co., Ilan, Taiwan, were acclimatized for 1 week, prior to administration of streptozotocin (STZ) at 40 mg/kg for 3 consecutive days. STZ was formulated with an aqueous solution of sodium citrate (pH 4.5, 73.5 mg/5 mL) on ice, and then 100 μL of the formulation was dosed by intraperitoneal injection. From day 2 in the 3 consecutive days, the mice were dosed with 5% (w/v) glucose water for 6 consecutive days. After allowing the mice to rest for 10 days, blood glucose levels were measured. After administration of STZ for 1 week, about 5 μL of blood was collected from each of the mice at the tail vein, and was assayed for blood glucose by a blood glucose monitor and chip (FORA, California, U.S.A.). After 1 week, blood glucose was detected once more, and whether blood glucose was smooth or not was evaluated prior to grouping. The values of blood glucose in all of the mice induced to suffer from diabetes were brought to fall within about 300±50 mg/dL. […]
(§1) An appropriate amount of propolins and its relevant derivatives, such as PPA, PPB, PPC, PPD, PPE, PPF, PPG, PPH, PPI or PPJ, was dissolved with 3 ml 95% alcohol and then uniformly mixed with 80 μL Tween 80; after concentrating under reduced pressure for removal of alcohol, it was uniformly dispersed into 16 ml water to give a liquid mixture of propolins. This mixture was fed by 200 μL gavage into the diabetic mice designated as the propolins and its relevant derivative group.
(§2) Sitagliptin (trade name: Januvia), commercially available from American Merck Co., was used as the DPP4 inhibitor. An appropriate amount of sitagliptin was dissolved in water to provide a final concentration allowing administration of the mice at a dose of 370 mg/kg. In the following example, Januvia was representative of the DPP4 inhibitors and acted as a positive control group for reference.
(§3) Tween 80 (80 μL) was mixed into 16 ml water to give a placebo, which was fed by 200 μL gavage into the STZ-induced diabetic mice or normal mice (i.e., the mice without induction for diabetes). Oral gavage was carried out once at a fixed time each day, and weight, feedstuff intake and water intake were measured weekly until tests were finished at 12-13 weeks.

[2] = test system: STZ-induced diabetic mice; experiment: Feedstuff intake of the diabetic mice; conditions: for feedstuff intake: propolins study
Procedure: (§4) The male FBV mice of 5 weeks old, commercially available from BioLASCO Co., Ilan, Taiwan, were acclimatized for 1 week, prior to administration of streptozotocin (STZ) at 40 mg/kg for 3 consecutive days. STZ was formulated with an aqueous solution of sodium citrate (pH 4.5, 73.5 mg/5 mL) on ice, and then 100 μL of the formulation was dosed by intraperitoneal injection. From day 2 in the 3 consecutive days, the mice were dosed with 5% (w/v) glucose water for 6 consecutive days. After allowing the mice to rest for 10 days, blood glucose levels were measured. After administration of STZ for 1 week, about 5 μL of blood was collected from each of the mice at the tail vein, and was assayed for blood glucose by a blood glucose monitor and chip (FORA, California, U.S.A.). After 1 week, blood glucose was detected once more, and whether blood glucose was smooth or not was evaluated prior to grouping. The values of blood glucose in all of the mice induced to suffer from diabetes were brought to fall within about 300±50 mg/dL.
(§5) An appropriate amount of the Taiwan Green Propolis alcohol extract was dissolved with 3 ml 95% alcohol and then uniformly mixed with 80 μL Tween 80 as a cosolvent; after concentrating under reduced pressure for removal of alcohol, it was dispersed into 16 ml water to give a liquid mixture of the Taiwan Green Propolis extract. This mixture was fed by 200 μL gavage into the diabetic mice designated as the Taiwan Green Propolis extract group.
as §1, §2, §3

[3] = test system: STZ-induced diabetic mice; experiment: Water intake of the diabetic mice
Procedure: as §4, §5, §1, §2, §3

[4] = test system: STZ-induced diabetic mice; experiment: Oral glucose tolerance test (OGTT); set-up: reduction of AUC compared with the STZ group / extent of reduction of AUC compared with the STZ group: concentration or dose not given beside the values
Procedure: as §4
After administration of the testing substance to the animals for 12 weeks, the OGTT test was performed for evaluation of secretion and effects of insulin. All of the mice in the test were administered with the testing substance and then fasted for 4 hours prior to blood sampling at the first point called point 0. Afterwards, the mice were fed by oral gavage with 200 μL glucose in water, equivalent to a dose of 1.0 g/kg. After administration, blood was collected for an assay of blood glucose at 15, 30, 60, 120 and 180 minutes, respectively. Therefore, a total of 6 points, including points at 0, 15, 30, 60, 120 and 180 minutes, were obtained. About 5 μL of blood was collected from each of the mice at the tail vein and was then assayed for blood glucose by the blood glucose monitor and chip (FORA, California, U.S.A.). The blood glucose values at the Y-axis were plotted against the time points at the X-axis. Each group was calculated for an area under curve for comparison. The efficacy in regulation of blood glucose was evaluated by the area showing a relationship between the testing substance and secretion and effects of insulin.

[5] = test system: STZ-induced diabetic mice; experiment: Analysis of glycosylated hemoglobin HbA1c; conditions: TPE study, TPE 36 mg/kg, DPP4I 370 mg/kg
Procedure: STZ was formulated with an aqueous solution of sodium citrate (pH 4.5, 73.5 mg/5 mL) on ice, and then 100 μL of the formulation was dosed by intraperitoneal injection. […] The glycosylated hemoglobin was used for evaluation of the efficacy of the testing substance in the regulation of blood glucose. […] (New Taipei City, Taiwan) for analysis. The analysis may confer an average and standard deviation to each group of the mice. In the event the presence of the blood glucose modulation efficacy for the testing substance, this value would be lower; and in the event the absence of the blood glucose modulation efficacy for the testing substance, this value would be higher.

With N[C@@H](CC(=O)N1CCn2c(nnc2C(F)(F)F)C1)Cc1cc(F)c(F)cc1F [DPP4I, Sitagliptin, reference compound] the blood glucose [1] was 330 mg/dL, the “effect on food intake” value ([2]; TPE study, 13 weeks, TPE 36 mg/kg/day, Januvia 370 mg/kg) was “the test results were the same” and the feedstuff intake ([2]; at 1 week) was 5.5 g/mouse. It also gave a feedstuff intake ([2]; at 6 weeks) of 6.5 g/mouse, a feedstuff intake ([2]; at 8 weeks) of 6.4 g/mouse and a water intake ([3]; TPE study, after 8 weeks, TPE 36 mg/kg/day, Januvia 370 mg/kg) of 5.4 mL/day/mouse. The water intake ([3]; TPE study, after 13 weeks, TPE 36 mg/kg/day, Januvia 370 mg/kg) was 3.8 mL/day/mouse, the water intake ([3]; TPE study, first week, TPE 36 mg/kg/day, Januvia 370 mg/kg) was 7.0 mL/day/mouse and the water intake ([3]; propolins study, at 1 week) was 8.0 mL/mouse. The water intake ([3]; propolins study, at 6 weeks) was 12.0 mL/mouse, the water intake ([3]; propolins study, at 8 weeks) was 12.5 mL/mouse and the “blood glucose value in glucose tolerance test” value (from here on “blood glucose value”) ([4]; TPE study, 0 point, glucose 1.0 g/kg oral, TPE 36 mg/kg, Januvia 370 mg/kg) was “about 260 mg/dL”. For the same compound, the “blood glucose value” value ([4]; TPE study, 30-minute time point after glucose in water) was “about 420 mg/dL”, the “blood glucose value” value ([4]; TPE study, 180-minute time point) was 240 mg/dL and the “reduction of AUC compared with the STZ group” value ([4]; TPE study, OGTT) was 66.1%. The “AUC value of blood glucose (integral area)” value ([4]; TPE study, OGTT 0-180 min, TPE 36 mg/kg, DPP4I 370 mg/kg) was “about 5.8×10^4”, the “value of blood glucose in glucose tolerance test” value ([4]; propolins study, 0 point, PPC 9.0, PPD 6.75, PPF 4.5, PPG 4.5, DPP4I 370 mg/kg/mouse) was “about 380 mg/dL” and the “value of blood glucose in glucose tolerance test” value ([4]; propolins study, 30-minute time point after glucose in water) was “about 450 mg/dL”. The “value of blood glucose in glucose tolerance test” value ([4]; propolins study, 120-minute time point) was “about 450 mg/dL”, the “value of blood glucose in glucose tolerance test” value ([4]; propolins study, 180-minute time point) was 400 mg/dL and the “AUC value for blood glucose (integral area)” value ([4]; propolins study, OGTT) was “about 7.2×10^4”. The “extent of reduction of AUC compared with the STZ group” value ([4]; propolins study, OGTT) was 42.0%, the “reduction of the generation of glycosylated hemoglobin” value ([5]; 13 weeks) was 55% and the “value of glycosylated hemoglobin” value ([5]; administration for 13 weeks) was “about 4.6%”.
